Counter-ions that a name gives are not always drawn.
Tests used:
[1] = system: bilaterally nephrectomized rats; assay: Survival of bilaterally nephrectomized rats after single doses; format: in vivo, rat; details: five rats per group
Text: After quarantine and acclimatization periods of 6 days, fifty-one 7-week-old rats (Crl: CD (SD), male) were fed a 100% sucrose diet ad libitum from four days before the surgery. On the day of the surgery, skin incisions were made on the back at the sites of the right and left kidneys under isoflurane anesthesia and the renal capsules were removed to ligate the renal arteries and veins and the ureters using threads before removing the right and left kidneys. A penicillin solution was given upon suturing, and 5 mL of physiological saline was intraperitoneally administered before returning the rats into the breeding cages.
On a day after the bilaterally nephrectomy, the given doses were calculated based on the weight of the selected animals on that day. Group 1 was given a medium (physiological saline), Groups 2, 3 and 4 were given the Compound A1 solution (0.3, 3 and 30 mg/mL, respectively), and Groups 5, 6, 7 and 8 (5 rats per group) were given the comparative compound (0.3, 1, 3 and 10 mg/mL, respectively), each given a single dose of 1 ml/kg from the tail vein. Prior to the administration (0 hour), and 24 and 48 hours after the administration, approximately 300 μL of blood was collected without anesthesia from the tail vein using capillary tubes for obtaining the serum. The blood for obtaining the serum was left to stand at room temperature, and centrifuged in a high speed refrigerated microcentrifuge (10000 rpm, 5 min, 4° C.) within a period of 30 minutes to 2 hours after the blood collection to collect the serum.
The number of rats in each group was five prior to the administration.

[2] = system: healthy Japanese male adults; assay: Phase I clinical trial (P1), single intravenous dose; format: in vivo, human
Description: Thirty-two healthy Japanese male adults were given a single intravenous dose of the test drug (Compound A1) at 0.01 mg, 0.1 mg, 1.0 mg or 2.5 mg in a fasted state to study the pharmacokinetics, pharmacodynamics and safety by a double-blind test using a placebo as a control. Here, the trial drug was administered by diluting a required dose taken from the Compound A1 vial formulation prepared as follows with sterilized water for injection, and filling a syringe with the resultant in accordance with the dose to be administered.
A vial formulation encapsulating 100 mg of Compound A1 in terms of a dehydrate, and sodium chloride, disodium hydrogen phosphate dodecahydrate and sodium dihydrogen phosphate dihydrate as additives in 10 ml of sterilized water for injection

normal rats = assay: PK/PD analysis (EC50) in normal rats; format: in vivo; details: Rattus norvegicus, same PK/PD analysis
Text: (§1) EC50 value in patient with renal failure was estimated based on the calculated EC50 value in healthy adults and the results from the same analysis in normal rats and adenine-treated rat models (pathological rat models). […] Since the difference in the EC50 value between rats in normal state and pathological state is presumed to be caused by the changes in PK that are considered to greatly vary between normal state and pathological state, similar tendency is expected in human as well.

[3] = system: patients with renal failure; assay: Estimation of EC50, PK and clinically effective dose in patients with renal failure; set-up: species or system human; details: scaling factor applied to healthy adult EC50
Text: as §1
The result from PK fitting, and the contribution rate of renal elimination of the drug (3.2%) calculated using PK-sim (registered trademark) were used to simulate PK prediction in the patients with renal failure. […] As a result, administration of a dose of 0.06 mg/man was estimated to maintain a concentration higher than 1.4 ng/ml for 72 hours (FIG. 8).

in vivo = details: Crl:CD(SD), rat, iv, 30 mg/kg
Description: The mean±standard error of the serum iPTH concentrations of all individuals prior to the administration (0 hour) was 231±16 pg/ml.
Logistic curve fitting was conducted to establish the response relationship between the serum iPTH concentration 48 hours after the administration and the given dose.

[4] = PK/PD analysis of P1 (three-compartment model, indirect response model incorporating rebound); format: in vivo, human; details: male, human, plasma, intravenous
Description: (§2) A PK/PD analysis was conducted to estimate the clinically effective dose based on the results from P1. The dose of 2.5 mg seemed to be excessive and thus was eliminated from the analysis. PK (mean plasma concentration) and PD (mean iPTH level normalized by the levels of the placebo group and the 0-hour level) data of the doses of 0.01 mg, 0.1 mg and 1 mg were used. An indirect response model incorporating rebound was used for the PK/PD analysis.
(§3) Based on the results of PK of the three given doses (0.01 mg, 0.1 mg and 1 mg) in P1, the three given doses were simultaneously analyzed using a three-compartment model to calculate the PK parameters (FIG. 5 and Table 2).
(§4) Using the calculated PK parameters as an input function, PK/PD analysis was performed using an indirect response model incorporating rebound (FIG. 6) to calculate the EC50 value in healthy adults (FIG. 7 and Table 3).

healthy adults = assay: as above; format: in vivo, human; details: Homo sapiens; iPTH decrease, healthy adults, indirect response model incorporating rebound; ± standard error
Description: as §2, §3, §4

[5] = system: adenine-treated rat models; assay: PK/PD analysis (EC50) in adenine-treated rat models; format: in vivo; details: adenine-treated rat models (pathological rat models), same PK/PD analysis
Text: as §1

[6] = Phase I/II clinical trial, single intravenous administration; format: in vivo, human; details: human, plasma, iv; single i.v. 0.025-0.8 mg; read-out: t½
Description: (§5) Targeting SHPT patients on maintenance hemodialysis, pharmacokinetics, pharmacodynamics and safety upon single or repeated intravenous administration of Compound A1 were examined by conducting a double-blind test using a placebo as a control.
(§6) Single administration: Based on the clinically effective dose calculated in Example 5, the doses were given at 0.025 mg, 0.05 mg, 0.1 mg, 0.2 mg, 0.4 mg, 0.6 mg and 0.8 mg (7 steps). On the day of trial drug administration, the trial drug was intravenously administered as slow as possible within 60 seconds 2 to 4 hours following the end of dialysis. Here, the trial drug was administered by diluting a required dose taken from the Compound A1 vial formulation prepared as follows with sterilized water for injection, and filling a syringe with the resultant in accordance with the dose to be administered.
(§7) Each item was evaluated according to the predetermined evaluation schedule.
(§8) A vial formulation encapsulating 1 mg of Compound A1 in terms of a dehydrate, and sodium chloride, disodium hydrogen phosphate dodecahydrate and sodium dihydrogen phosphate dihydrate as additives in 10 ml of sterilized water for injection

[7] = system: SHPT patients on maintenance hemodialysis; assay: as above; format: in vivo, human
Description: as §5, §6, §7, §8

[8] = Emetogenicity in dogs (crossover, intravenous bolus); details: male, beagle, dog, in vivo, 1 mg/kg (no vomiting case)
Description: A crossover trial was conducted with male beagles (Nosan Beagle, 14-87-month-old, weight: 10.2 kg-15.8 kg). The Compound A1 solutions used in Example 2 were given at 0.3, 1 and 10 mg/kg by bolus administration (0.5 mL/kg, 1 mL/sec) to 3-6 dogs per dose to confirm the manifestation of vomiting immediately after the administration. Administration was conducted once or twice a week with a 2-day interval. Administration was conducted prior to feeding. Symptoms prior to, immediately after, and 15 and 30 minutes after the administration were observed.

normal rat = assay: Non-clinical studies of excretion and elimination; format: in vivo
Text: Compound A1 is a CaSR activator used for intravenous administration.

[9] = system: SHPT patients on maintenance hemodialysis; assay: Phase I/II clinical trial, repeated intravenous administration; format: in vivo, human
Description: as §5
Repeated administration: Based on the clinically effective dose calculated in Example 5, the doses were given in 3 steps, namely, 0.05 mg, 0.1 mg and 0.2 mg. The trial drug was (intravenously) infused from the venous side of the dialysis circuit before the end of dialysis three times a week for 22 days (total of 9 times) starting from the first day of administration of the trial drug. Here, the trial drug was administered by diluting a required dose taken from the Compound A1 vial formulation prepared as follows with sterilized water for injection, and filling a syringe with the resultant in accordance with the dose to be administered.
as §7, §8

With `Cc1c(Cl)cc(S(=O)(=O)[O-])cc1NC(=O)NC[C@H](N)C(=O)O.[Na+]` [Compound A1, sodium 3-{[(2S)-2-amino-2-carboxyethyl]carbamoylamino}-5-chloro-4-methylbenzenesulfonate] the “survival 48 hours after the administration” value (“survival 48 hours” for short) ([1]; all administered groups (0.3, 3 and 30 mg/kg)) was “all five rats survived”, the elimination from plasma ([2]; single i.v. 0.01, 0.1, 1.0 and 2.5 mg) was “rapidly eliminated” and the “safety (side effects)” value ([2]; single i.v. dose) was “non-severe and mild side effects such as vomiting were observed in the 1.0 mg and higher dose groups”. The “serum iPTH concentration compared to before the administration” value ([2]; single i.v. dose) was “decreased in the 0.01 mg and higher dose groups”, the “excretion into the urine” value ([2]; with respect to the given dose) was “excreted into the urine mostly as unchanged substances” and the EC50 (normal rats) was under 0.0229 µg/mL. For the same compound, the “EC50 value estimated in the patients with renal failure” value [3] was over 0.0014 µg/mL, the concentration at 48 h (in vivo) was 18800 ng/mL and the Vd ([4]; three-compartment model, doses 0.01, 0.1, 1 mg, ± standard error) was 0.0909 ± 0.0114 L/kg. The C0 ([4]; assumed effective dose 0.1 mg/man, from simultaneous fitting of all doses) was 0.0436 µM, the EC50 (healthy adults) was 0.000421 ± 0.000167 µg/mL and the EC50 [5] was 0.0748 µg/mL. For the same compound, the half-life [6] was 65 to 122 h, the “lowering of plasma concentration immediately after dialysis vs just before the dialysis” value ([7]; hemodialysis performed 66 hours after the administration) was 75-81% and the “nausea observed (non-severe and mild)” value ([7]; single administration) was “in the 0.6 mg and higher dose groups”. The “vomiting observed (non-severe and mild)” value ([7]; single administration) was “in the 0.4 mg and higher dose groups”, the “duration of serum iPTH lowering effect after the administration” value ([7]; single administration, until just before the dialysis) was “up to 66 hours” and the C0 [8] was 18.8 µM. The “elimination from the plasma” value (normal rat; intravenously administered to a normal rat) was “rapidly eliminated from the plasma”, the “main route of excretion” value (normal rat; non-clinical studies) was “renal excretion is the main route of excretion” and the accumulating property [9] was “has not no accumulating property”. The “trough concentration in plasma before the dialysis following the longest interval” value [9] was “generally constant”, the “maintenance of serum iPTH lowering effect” value ([9]; test period) was “maintained its effect with repeated administration” and the “form present in the plasma” value ([9]; three times a week for 22 days) was “present mainly as an unchanged substance”.
For `CC(=O)N[C@H](CSSC[C@H](N)C(=O)O)C(=O)N[C@H](C)C(=O)N[C@H](CCCNC(=N)N)C(=O)N[C@H](CCCNC(=N)N)C(=O)N[C@H](CCCNC(=N)N)C(=O)N[C@H](C)C(=O)N[C@H](CCCNC(=N)N)C(N)=O` [comparative compound, etelcalcetide (Ac-c(C) arrrar-NH2) TFA salt], the “survival 48 hours” value ([1]; 3 mg/kg group) was “four survived” and the “survival 48 hours” value ([1]; 10 mg/kg group) was “one survived”.
